Measurements published in patent US10357493B2, “Metalloenzyme inhibitor compounds” (Selenity Therapeutics (Bermuda), Ltd., priority 2017, dated 2019).

Legend:
HDAC6 = HDAC6 (Homo sapiens (Human), UniProt Q9UBN7); experiment: HDAC6 enzymatic assay; assay type: biochemical; settings: read-out: Human HDAC6 IC50
Method: (§1) All enzymatic reactions were conducted in duplicate at room temperature for 17 hours in a 50 μl mixture containing HDAC assay buffer (50 mM Tris-HCl, pH 7.4, 137 mM NaCl, 2.7 mM KCl, 0.05% Tween 20, 5 μg BSA), an HDAC substrate, an HDAC enzyme, and a test compound. Compound dilution was prepared ten-fold higher than the final concentration of the compounds with 10% DMSO in HDAC assay buffer and 5 μl of the dilution was added to a 50 μl reaction so that the final concentration of DMSO is 1% in all of reactions. After enzymatic reactions, 50 μl of HDAC Developer was added to each well and the plate was incubated at room temperature for an additional 20 minutes. Fluorescence intensity was measured at an excitation of 360 nm and an emission of 460 nm using a Tecan Infinite M1000 or Biotek Synergy microplate reader.
(§2) The fluorescent intensity data were analyzed using the computer software, Graphpad Prism. In the absence of the compound, the fluorescent intensity (Ft) in each data set was defined as 100% activity. In the absence of HDAC, the fluorescent intensity (Fb) in each data set was defined as 0% activity. The percent activity in the presence of each compound was calculated according to the following equation: % activity=(F−Fb)/(Ft−Fb), where F=the fluorescent intensity in the presence of the compound.
(§3) The values of % activity versus a series of compound concentrations were then plotted using non-linear regression analysis of Sigmoidal dose-response curve generated with the equation Y=B+(T−B)/1+10((Log EC50−X)×Hill Slope), where Y=percent activity, B=minimum percent activity, T=maximum percent activity, X=logarithm of compound and Hill Slope=slope factor or Hill coefficient. The IC50 value was determined by the concentration causing a half-maximal percent activity.
(§4) HDAC1 enzymatic assays contained 0.5 ng HDAC1 and 10 uM of HDAC substrate. HDAC2 enzymatic assays contained 0.5 ng HDAC2 and 10 uM of HDAC substrate. HDAC3 enzymatic assays contained 0.4 ng HDAC3/NCOR2 and 10 uM of HDAC substrate. HDAC4 enzymatic assays contained 0.02 ng HDAC4 and 2 uM of HDAC substrate. HDAC5 enzymatic assays contained 0.5 ng HDAC5 and 2 uM of HDAC substrate. HDAC6 enzymatic assays contained 2 ng HDAC6 and 10 uM of HDAC substrate. HDAC7 enzymatic assays contained 0.05 ng HDAC7 and 2 uM of HDAC substrate. HDAC8 enzymatic assays contained 5 ng HDAC8 and 2 uM of HDAC substrate. HDAC9 enzymatic assays contained 1 ng HDAC9 and 2 uM of HDAC substrate. HDAC10 enzymatic assays contained 75 ng HDAC10 and 10 uM of HDAC substrate. HDAC11 enzymatic assays contained 5 ng HDAC11 and 2 uM of HDAC substrate.

HDAC1 = HDAC1 (Homo sapiens (Human), UniProt Q13547); experiment: HDAC1 enzymatic assay; assay type: biochemical; settings: read-out: Human HDAC1 IC50
Method: as §1, §2, §3, §4

Sequence of HDAC1 (Q13547 whole entry): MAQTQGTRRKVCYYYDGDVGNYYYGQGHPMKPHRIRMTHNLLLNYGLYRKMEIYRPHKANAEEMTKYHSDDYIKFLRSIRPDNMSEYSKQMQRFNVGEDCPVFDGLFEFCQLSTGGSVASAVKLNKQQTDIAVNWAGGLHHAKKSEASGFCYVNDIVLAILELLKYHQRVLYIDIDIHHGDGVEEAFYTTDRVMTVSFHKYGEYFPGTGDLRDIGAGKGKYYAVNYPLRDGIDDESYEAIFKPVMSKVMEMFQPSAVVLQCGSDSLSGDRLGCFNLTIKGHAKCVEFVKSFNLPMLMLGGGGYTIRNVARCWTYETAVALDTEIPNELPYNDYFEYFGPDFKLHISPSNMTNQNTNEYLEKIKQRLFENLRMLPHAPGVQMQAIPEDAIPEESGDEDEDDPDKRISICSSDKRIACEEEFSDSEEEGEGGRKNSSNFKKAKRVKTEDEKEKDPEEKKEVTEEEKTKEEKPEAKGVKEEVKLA
Sequence of HDAC6 (Q9UBN7 whole entry): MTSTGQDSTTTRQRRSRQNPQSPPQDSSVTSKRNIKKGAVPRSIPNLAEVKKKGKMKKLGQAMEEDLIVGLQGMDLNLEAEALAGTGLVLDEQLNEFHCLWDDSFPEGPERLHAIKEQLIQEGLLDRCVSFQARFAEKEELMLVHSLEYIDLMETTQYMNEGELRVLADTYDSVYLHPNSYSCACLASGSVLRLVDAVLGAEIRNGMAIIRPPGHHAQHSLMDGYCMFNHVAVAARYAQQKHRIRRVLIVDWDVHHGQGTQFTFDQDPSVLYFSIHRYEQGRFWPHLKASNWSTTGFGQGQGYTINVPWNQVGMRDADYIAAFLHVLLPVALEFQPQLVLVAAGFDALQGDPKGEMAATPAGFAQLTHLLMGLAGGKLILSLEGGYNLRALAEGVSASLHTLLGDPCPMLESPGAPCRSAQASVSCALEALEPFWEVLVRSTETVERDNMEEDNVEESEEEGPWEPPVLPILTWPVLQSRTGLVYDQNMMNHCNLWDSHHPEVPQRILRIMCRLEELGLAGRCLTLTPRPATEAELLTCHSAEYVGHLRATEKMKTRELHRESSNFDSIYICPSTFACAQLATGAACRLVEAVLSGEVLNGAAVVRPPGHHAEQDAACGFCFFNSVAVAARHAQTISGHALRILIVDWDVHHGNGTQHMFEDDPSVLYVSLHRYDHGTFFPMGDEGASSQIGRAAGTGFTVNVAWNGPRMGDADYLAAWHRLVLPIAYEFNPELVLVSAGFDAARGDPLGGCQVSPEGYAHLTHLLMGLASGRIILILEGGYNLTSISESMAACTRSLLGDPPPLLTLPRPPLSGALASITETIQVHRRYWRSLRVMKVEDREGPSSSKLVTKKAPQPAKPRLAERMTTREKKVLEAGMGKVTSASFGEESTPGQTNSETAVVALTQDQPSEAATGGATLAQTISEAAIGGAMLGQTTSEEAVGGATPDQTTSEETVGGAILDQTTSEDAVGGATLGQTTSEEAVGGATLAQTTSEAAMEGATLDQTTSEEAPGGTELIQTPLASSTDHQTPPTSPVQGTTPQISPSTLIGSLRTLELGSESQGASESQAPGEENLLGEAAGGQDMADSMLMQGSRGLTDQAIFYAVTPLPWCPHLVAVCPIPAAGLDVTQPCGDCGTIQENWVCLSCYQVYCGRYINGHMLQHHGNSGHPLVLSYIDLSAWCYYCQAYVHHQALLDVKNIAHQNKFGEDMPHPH

SMILES | IC50 (HDAC6) [nM] | IC50 (HDAC1) [nM]
CS(=O)(=O)NCC(Nc1ncc(-c2nnc(C(F)F)o2)cn1)c1ccc(F)cc1 (single isomer, unassigned) [38(−), N-(2-((5-(5-(difluoromethyl)-1,3,4-oxadiazol-2-yl)pyrimidin-2-yl)amino)-2-(4-fluorophenyl)ethyl) methanesulfonamide] | 320 | > 30000
CC(=O)NCC(Nc1ncc(-c2nnc(C(F)F)o2)cn1)c1ccc(F)cc1 (single isomer, unassigned) [78(−), N-(2-((5-(5-(difluoromethyl)-1,3,4-oxadiazol-2-yl)pyrimidin-2-yl)amino)-2-(4-fluorophenyl)ethyl)acetamide] | 420 | > 30000
Fc1ccc(C(CC(F)(F)F)Nc2ncc(-c3nnc(C(F)F)o3)cn2)c(F)c1 (single isomer, unassigned) [101(−)] | 710 | > 30000
CS(=O)(=O)NCC(Nc1ncc(-c2nnc(C(F)F)o2)cn1)c1ccc(F)cc1F (single isomer, unassigned) [103(−), N-(2-((5-(5-(difluoromethyl)-1,3,4-oxadiazol-2-yl)pyrimidin-2-yl)amino)-2-(2,4-difluorophenyl)ethyl)methanesulfonamide] | 650 | > 30000
CS(=O)(=O)NCC(Nc1ncc(-c2nnc(C(F)F)o2)cn1)c1ccc(OC(F)F)cc1 (single isomer, unassigned) [115(−), N-(2-(4-(difluoromethoxy)phenyl)-2-((5-(5-(difluoromethyl)-1,3,4-oxadiazol-2-yl)pyrimidin-2-yl)amino)ethyl)methanesulfonamide] | 370 | > 30000
CS(=O)(=O)NCC(Nc1ncc(-c2nnc(C(F)F)o2)cn1)c1ccc(OC(F)F)cc1F (single isomer, unassigned) [116(−), N-(2-(4-(difluoromethoxy)-2-fluorophenyl)-2-((5-(5-(difluoromethyl)-1,3,4-oxadiazol-2-yl)pyrimidin-2-yl)amino)ethyl)methanesulfonamide] | 260 | > 30000
CS(=O)(=O)NCC(Nc1ncc(-c2nnc(C(F)F)o2)cn1)c1ccc(OC(F)(F)F)cc1 (single isomer, unassigned) [122(−), N-(2-((5-(5-(difluoromethyl)-1,3,4-oxadiazol-2-yl)pyrimidin-2-yl)amino)-2-(4-(trifluoromethoxy)phenyl)ethyl)methanesulfonamide] | 840 | > 30000
CS(=O)(=O)NCC(Nc1ncc(-c2nnc(C(F)F)o2)cn1)C1CC1 (single isomer, unassigned) [123(+), N-(2-cyclopropyl-2-((5-(5-(difluoromethyl)-1,3,4-oxadiazol-2-yl)pyrimidin-2-yl)amino)ethyl)methanesulfonamide] | 1100 | > 30000
CS(=O)(=O)NCC(Nc1ncc(-c2nnc(C(F)F)o2)cn1)C1CC1 (single isomer, unassigned) [123(−), N-(2-cyclopropyl-2-((5-(5-(difluoromethyl)-1,3,4-oxadiazol-2-yl)pyrimidin-2-yl)amino)ethyl)methanesulfonamide] | 1100 | > 30000
CS(=O)(=O)CC(Nc1ncc(-c2nnc(C(F)F)o2)cn1)c1ccc(F)cc1 (single isomer, unassigned) [161(−), 5-(5-(difluoromethyl)-1,3,4-oxadiazol-2-yl)-N-(1-(4-fluorophenyl)-2-(methylsulfonyl)ethyl)pyrimidin-2-amine] | 870 | > 30000
Fc1ccc(C(COCC(F)(F)F)Nc2ncc(-c3nnc(C(F)F)o3)cn2)cc1 (single isomer, unassigned) [162(+), 5-(5-(difluoromethyl)-1,3,4-oxadiazol-2-yl)-N-(1-(4-fluorophenyl)-2-(2,2,2-trifluoroethoxy)ethyl)pyrimidin-2-amine] | 130 | > 30000
Fc1ccc(C(COCC(F)(F)F)Nc2ncc(-c3nnc(C(F)F)o3)cn2)cc1 (single isomer, unassigned) [162(−), 5-(5-(difluoromethyl)-1,3,4-oxadiazol-2-yl)-N-(1-(4-fluorophenyl)-2-(2,2,2-trifluoroethoxy)ethyl)pyrimidin-2-amine] | 300 | > 30000
Fc1ccc(C(COCC(F)(F)F)Nc2ncc(-c3nnc(C(F)F)o3)cn2)c(F)c1 (single isomer, unassigned) [163(−), 5-(5-(difluoromethyl)-1,3,4-oxadiazol-2-yl)-N-(1-(2,4-difluorophenyl)-2-(2,2,2-trifluoroethoxy)ethyl)pyrimidin-2-amine] | 410 | > 30000

These reach a lower IC50 (HDAC6). Values come first.

IC50 (HDAC6) [nM] | IC50 (HDAC1) [nM] | SMILES
110 | > 30000 | Fc1ccc(C(COCC(F)(F)F)Nc2ncc(-c3nnc(C(F)F)o3)cn2)c(F)c1 (single isomer, unassigned) [163(+), 5-(5-(difluoromethyl)-1,3,4-oxadiazol-2-yl)-N-(1-(2,4-difluorophenyl)-2-(2,2,2-trifluoroethoxy)ethyl)pyrimidin-2-amine]
110 | > 30000 | CCS(=O)(=O)N(CC(Nc1ncc(-c2nnc(C(F)F)o2)cn1)c1ccc(F)cc1)CC(F)(F)F (single isomer, unassigned) [164(+), N-(2-((5-(5-(difluoromethyl)-1,3,4-oxadiazol-2-yl)pyrimidin-2-yl)amino)-2-(4-fluorophenyl)ethyl)-N-(2,2,2-trifluoroethyl)ethanesulfonamide]
61 | – | Fc1ccc(C(COC2CC2)Nc2ncc(-c3nnc(C(F)F)o3)cn2)c(F)c1 (single isomer, unassigned) [Example 134B, N-(2-cyclopropoxy-1-(2,4-difluorophenyl)ethyl)-5-(5-(difluoromethyl)-1,3,4-oxadiazol-2-yl)pyrimidin-2-amine]
48 | > 30000 | CC(=O)NCC(Nc1ncc(-c2nnc(C(F)F)o2)cn1)c1ccc(F)cc1 (single isomer, unassigned) [78(+), N-(2-((5-(5-(difluoromethyl)-1,3,4-oxadiazol-2-yl)pyrimidin-2-yl)amino)-2-(4-fluorophenyl)ethyl)acetamide]
47 | > 30000 | CC(=O)NCC(Nc1ncc(-c2nnc(C(F)F)o2)cn1)c1ccc(F)cc1 (racemic) [Example 78, N-(2-((5-(5-(difluoromethyl)-1,3,4-oxadiazol-2-yl)pyrimidin-2-yl)amino)-2-(4-fluorophenyl)ethyl)acetamide]
41 | > 30000 | CN(CC(Nc1ncc(-c2nnc(C(F)F)o2)cn1)c1ccc(F)cc1F)S(C)(=O)=O (single isomer, unassigned) [137(+), N-(2-((5-(5-(difluoromethyl)-1,3,4-oxadiazol-2-yl)pyrimidin-2-yl)amino)-2-(2,4-difluorophenyl)ethyl)-N-methylmethanesulfonamide]
33 | > 30000 | CCS(=O)(=O)NCC(Nc1ncc(-c2nnc(C(F)F)o2)cn1)c1ccc(F)cc1F (single isomer, unassigned) [139(+), N-(2-((5-(5-(difluoromethyl)-1,3,4-oxadiazol-2-yl)pyrimidin-2-yl)amino)-2-(2,4-difluorophenyl)ethyl)ethanesulfonamide]
22 | > 30000 | Fc1ccc(C(CC(F)(F)F)Nc2ncc(-c3nnc(C(F)F)o3)cn2)c(F)c1 (single isomer, unassigned) [101(+)]
